Assay results as given in patent publication US6689773B2, “Uracil substituted phenyl sulfamoyl carboxamides” (BASF Aktiengesellschaft, priority 2000, dated 2004).

What was measured:
Experiment in all cases: Greenhouse post-emergence herbicidal action (Example 149)
Type in all cases: in vivo
Settings in all cases: 15.6 or 7.8 g/ha of a.i.
[1] = tested on: Polygonum persicaria (POLPE), redshank; ladysthumb
Procedure: (§1) The culture containers used were plastic flowerpots containing loamy sand with approximately 3.0% of humus as substrate. The seeds of the test plants were sown separately for each species.
(§2) For the post-emergence treatment, the test plants were grown to a plant height of from 3 to 15 cm, depending on the plant habit, and only then treated with the active ingredients which had been suspended or emulsified in water. To this end, the test plants were either sown directly and grown in the same containers, or they were first grown separately as seedlings and transplanted into the test containers a few days prior to treatment. The rate of application for the post-emergence treatment was 15.6 or 7.8 g/ha active ingredient.
(§3) Depending on the species, the plants were kept at from 10-25° C. and 20-35° C., respectively. The test period extended over 2 to 4 weeks. During this time, the plants were tended, and their response to the individual treatments was evaluated.
(§4) Evaluation was carried out using a scale of from 0 to 100. 100 means no emergence of the plants, or complete destruction of at least the aerial parts, and 0 means no damage or normal course of growth.
(§5) The plants used in the greenhouse experiments belonged to the following species: […]

[2] = tested on: Pharbitis purpurea (PHBPU), common or tall morningglory
Procedure: as §1, §2, §3, §4, §5

[3] = tested on: Amaranthus retroflexus (AMARE), Redroot pigweed
Procedure: as §1, §2, §3, §4, §5

Measured: herbicidal action

CC(C)N(C)S(=O)(=O)NC(=O)c1cc(-c2nn(C)c(OC(F)F)c2Cl)c(F)cc1Cl [Ip.86, 4-Chloro-3-[4-chloro-2-fluoro-5-(N-methyl-N-isopropyl)-sulfamoylcarboxamidophenyl]-5-difluoromethoxy-1-methyl-1H-pyrazole]
very good herbicial action: all assays above

CC(C)N(C)S(=O)(=O)NC(=O)c1cc(-c2ncc(C(F)(F)F)cc2Cl)c(F)cc1Cl [Iy.86, N′-[[2-Chloro-5-[3-chloro-5-(trifluoromethyl)-2-pyridinyl]-4-fluorobenzoyl]]-N-isopropyl-N-methylsulfamide]
very good herbicial action: all assays above
